According to patent US9115101B2 (Genentech, Inc., priority 2012, dated 2015):

Molecular target: T1, RORc ligand binding domain (Homo sapiens, UniProt P51449)
T1 construct: host or cells: E. coli
T1 sequence (P51449 269-508 limits assumed): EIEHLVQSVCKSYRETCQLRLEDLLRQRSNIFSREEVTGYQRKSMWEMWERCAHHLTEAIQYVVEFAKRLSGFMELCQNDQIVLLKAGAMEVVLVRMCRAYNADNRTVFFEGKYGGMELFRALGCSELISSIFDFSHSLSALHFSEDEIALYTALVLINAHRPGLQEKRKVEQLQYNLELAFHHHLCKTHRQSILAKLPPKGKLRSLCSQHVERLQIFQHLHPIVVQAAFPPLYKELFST
Test: In Vitro RORc Ligand Binding Assay (25-[3H]hydroxycholesterol radioligand filtration)
Conditions: In Vitro RORc Ligand Binding Assay; Table 4; read-out: RORc IC50

Point of comparison: `CC(=O)N1CCN(c2ccc(CN3[C@@H](C)CCC(c4ccccc4)S3(=O)=O)c(F)c2)C[C@@H]1C#N` (stereo partly drawn) [Example 376, (R)-1-Acetyl-4-[3-fluoro-4-((3S)-methyl-1,1-dioxo-6-phenyl-[1,2]thiazinan-2-ylmethyl)-phenyl]-piperazine-2-carbonitrile], IC50 78 nM. Against it:
- C[C@H]1CCC(c2ccccc2)S(=O)(=O)N1Cc1ccc(C(=O)N2CCn3nccc3C2)cc1 (stereo partly drawn) [Example 373, (6,7-Dihydro-4H-pyrazolo[1,5-a]pyrazin-5-yl)-[4-((3S)-methyl-1,1-dioxo-6-phenyl-[1,2]thiazinan-2-ylmethyl)-phenyl]-methanone] — 56-fold higher, 4360 nM
- Cc1ncc2n1CCN(c1ccc(CN3[C@@H](C)CCC(c4ccccc4)S3(=O)=O)c(F)c1)C2 (stereo partly drawn) [Example 374, 7-[3-Fluoro-4-((3S)-methyl-1,1-dioxo-6-phenyl-[1,2]thiazinan-2-ylmethyl)-phenyl]-3-methyl-5,6,7,8-tetrahydro-imidazo[1,5-a]pyrazine] — 2.1-fold higher, 166 nM
- CC(=O)N1CCN(c2ccc(CN3[C@@H](C)CCC(c4ccccc4)S3(=O)=O)c(F)c2)C[C@@H]1C(N)=O (stereo partly drawn) [Example 375, (R)-1-Acetyl-4-[3-fluoro-4-((3S)-methyl-1,1-dioxo-6-phenyl-[1,2]thiazinan-2-ylmethyl)-phenyl]-piperazine-2-carboxylic acid amide] — 2-fold higher, 156 nM
- CC(=O)N1CCN(c2ccc(CN3[C@@H](C)CCC(c4ccccc4)S3(=O)=O)c(F)c2)C[C@H]1C(=O)O (stereo partly drawn) [Example 377, (S)-1-Acetyl-4-[3-fluoro-4-((3S)-methyl-1,1-dioxo-6-phenyl-[1,2]thiazinan-2-ylmethyl)-phenyl]-piperazine-2-carboxylic acid] — 17-fold higher, 1360 nM
- CC(=O)N1CCN(c2ccc(CN3[C@@H](C)CCC(c4ccccc4)S3(=O)=O)c(F)c2)C[C@H]1CO (stereo partly drawn) [Example 378, 1-{(S)-4-[3-Fluoro-4-((3S)-methyl-1,1-dioxo-6-phenyl-[1,2]thiazinan-2-ylmethyl)-phenyl]-2-hydroxymethyl-piperazin-1-yl}-ethanone] — within 1.5-fold, 61 nM
- CC(=O)N1CCN(c2ccc(CN3[C@@H](C)CCC(c4ccccc4)S3(=O)=O)c(F)c2)C[C@H]1C(=O)N(C)C (stereo partly drawn) [Example 379, (S)-1-Acetyl-4-[3-fluoro-4-((3S)-methyl-1,1-dioxo-6-phenyl-[1,2]thiazinan-2-ylmethyl)-phenyl]-piperazine-2-carboxylic acid dimethylamide] — 11-fold higher, 882 nM
- CNC(=O)[C@@H]1CN(c2ccc(CN3[C@@H](C)CCC(c4ccccc4)S3(=O)=O)c(F)c2)CCN1C(C)=O (stereo partly drawn) [Example 380, (S)-1-Acetyl-4-[3-fluoro-4-((3S)-methyl-1,1-dioxo-6-phenyl-[1,2]thiazinan-2-ylmethyl)-phenyl]-piperazine-2-carboxylic acid methylamide] — 1.8-fold higher, 138 nM
- CC(=O)N1CCN(c2ccc(CN3[C@@H](C)CCC(c4ccccc4)S3(=O)=O)c(F)c2)C[C@H]1C(N)=O (stereo partly drawn) [Example 381, (S)-1-Acetyl-4-[3-fluoro-4-((3S)-methyl-1,1-dioxo-6-phenyl-[1,2]thiazinan-2-ylmethyl)-phenyl]-piperazine-2-carboxylic acid amide] — 6.7-fold higher, 522 nM
- COC(=O)[C@@H]1CN(c2ccc(CN3[C@@H](C)CCC(c4ccccc4)S3(=O)=O)c(F)c2)CCN1C(C)=O (stereo partly drawn) [Example 382, (S)-1-Acetyl-4-[3-fluoro-4-((3S)-methyl-1,1-dioxo-6-phenyl-[1,2]thiazinan-2-ylmethyl)-phenyl]-piperazine-2-carboxylic acid methyl ester] — 2.3-fold lower, 34 nM
- CNC(=O)[C@H]1CN(c2ccc(CN3[C@@H](C)CCC(c4ccccc4)S3(=O)=O)c(F)c2)CCN1C(C)=O (stereo partly drawn) [Example 383, (R)-1-Acetyl-4-[3-fluoro-4-((3S)-methyl-1,1-dioxo-6-phenyl-[1,2]thiazinan-2-ylmethyl)-phenyl]-piperazine-2-carboxylic acid methylamide] — 9-fold higher, 705 nM
- CC(=O)N1CCN(c2ccc(CN3[C@@H](C)CCC(c4ccccc4)S3(=O)=O)c(F)c2)C[C@@H]1C(=O)N(C)C (stereo partly drawn) [Example 384, (R)-1-Acetyl-4-[3-fluoro-4-((3S)-methyl-1,1-dioxo-6-phenyl-[1,2]thiazinan-2-ylmethyl)-phenyl]-piperazine-2-carboxylic acid dimethylamide] — 22-fold higher, 1720 nM
- CC(=O)N1CCN(c2ccc(CN3[C@@H](C)CCC(c4ccccc4)S3(=O)=O)c(F)c2)C[C@H]1C#N (stereo partly drawn) [Example 385, (S)-1-Acetyl-4-[3-fluoro-4-((3S)-methyl-1,1-dioxo-6-phenyl-[1,2]thiazinan-2-ylmethyl)-phenyl]-piperazine-2-carbonitrile] — 3.1-fold higher, 240 nM
- C[C@H]1CCC(c2ccccc2)S(=O)(=O)N1Cc1ccc(C(=O)NC2CCS(=O)(=O)CC2)cc1 (stereo partly drawn) [Example 386, N-(1,1-Dioxo-hexahydro-1-thiopyran-4-yl)-4-((3S)-methyl-1,1-dioxo-6-phenyl-[1,2]thiazinan-2-ylmethyl)-benzamide] — 19-fold higher, 1490 nM
- C[C@H]1CCC(c2ccccc2)S(=O)(=O)N1Cc1ccc(C(=O)NC2CN(S(C)(=O)=O)C2)cc1 (stereo partly drawn) [Example 387, N-(1-Methanesulfonyl-azetidin-3-yl)-4-((3S)-methyl-1,1-dioxo-6-phenyl-[1,2]thiazinan-2-ylmethyl)-benzamide] — 7.8-fold higher, 607 nM
- C[C@H]1CCC(c2ccccc2)S(=O)(=O)N1Cc1ccc(C(=O)N[C@@H]2CCN(S(C)(=O)=O)C2)cc1 (stereo partly drawn) [Example 388, N-((R)-1-Methanesulfonyl-pyrrolidin-3-yl)-4-((3S)-methyl-1,1-dioxo-6-phenyl-[1,2]thiazinan-2-ylmethyl)-benzamide] — 45-fold higher, 3520 nM
- C[C@H]1CCC(c2ccccc2)S(=O)(=O)N1Cc1ccc(C(=O)NC2CCS(=O)(=O)C2)cc1 (stereo partly drawn) [Example 389, N-(1,1-Dioxo-tetrahydro-6-thiophen-3-yl)-4-((3S)-methyl-1,1-dioxo-6-phenyl-[1,2]thiazinan-2-ylmethyl)-benzamide] — 41-fold higher, 3220 nM
- C[C@H]1CCC(c2ccccc2)S(=O)(=O)N1Cc1ccc(C(=O)NC2CN(C(N)=O)C2)cc1 (stereo partly drawn) [Example 390, 3-[4-((3S)-Methyl-1,1-dioxo-6-phenyl-[1,2]thiazinan-2-ylmethyl)-benzoylamino]-azetidine-1-carboxylic acid amide] — 70-fold higher, 5460 nM
- C[C@H]1CCC(c2ccccc2)S(=O)(=O)N1Cc1ccc(C(=O)N[C@@H]2CCN(C(N)=O)C2)cc1 (stereo partly drawn) [Example 391, (R)-3-[4-((3S)-Methyl-1,1-dioxo-6-phenyl-[1,2]thiazinan-2-ylmethyl)-benzoylamino]-pyrrolidine-1-carboxylic acid amide] — 44-fold higher, 3430 nM
- COC(=O)[C@@H]1CN(C(C)=O)CCN1c1ccc(CN2[C@@H](C)CCC(c3ccccc3)S2(=O)=O)c(F)c1 (stereo partly drawn) [Example 392, (S)-4-Acetyl-1-[3-fluoro-4-((3S)-methyl-1,1-dioxo-6-phenyl-[1,2]thiazinan-2-ylmethyl)-phenyl]-piperazine-2-carboxylic acid methyl ester] — 6-fold lower, 13 nM
- COCCNC(=O)[C@@H]1CN(c2ccc(CN3[C@@H](C)CCC(c4ccccc4)S3(=O)=O)c(F)c2)CCN1C(C)=O (stereo partly drawn) [Example 393, (S)-1-Acetyl-4-[3-fluoro-4-((3S)-methyl-1,1-dioxo-6-phenyl-[1,2]thiazinan-2-ylmethyl)-phenyl]-piperazine-2-carboxylic acid (2-methoxy-ethyl)-amide] — 8.9-fold higher, 697 nM
